Assay results: US20220274927A1, “MEMBRANE-ACTIVE ANTI-BACTERIAL COMPOUNDS AND USES THEREOF” (Trustees of Dartmouth College, priority 2019, published 2022)
Values after ≈ are worked out from the molar mass of the structure shown. “Also recorded” adds a separate entry of the source. Where two headings read alike, the source gives them in different places.

Experiments:
[1] = system: methicillin-resistant S. aureus (FPR3757); experiment: MIC against clinical MRSA strain FPR3757 in Mueller-Hinton broth (CLSI); format: cell-based, Staphylococcus aureus
Excerpt: (§1) The first set of compounds evaluated were analogs at the C-7 and C-8 positions of the initial quinolone hit DNAC-2 since the other HTS hits identified (data not shown) were substituted at these positions (Table 1). Applicants first explored modification at the C-7 position with a small series of electron-donating and withdrawing substituents. […] However, analogs containing electron donating groups at C-7 including ethyl 7, benzyloxy 8, methoxy 9 and methylthio 10 are weakly active displaying MICs of 320-640 μg/mL indicating electron-donating substituents at C-7 are poorly tolerated. […] The C-8 position was evaluated with trifluoromethyl 4 and trifluoromethoxy 5 containing the optimal C-7 substituents. Both 4 and 5 are equipotent to the corresponding C-7 analogs 2 and 3 indicating some flexibility of the quinolone scaffold.

[2] = system: S. aureus membranes (versus erythrocyte membranes); experiment: in vitro; format: cell-based, sheep; details: sheep
Procedure: (§2) FIG. 8 illustrates percent hemolysis analysis of sheep erythrocytes. Concentration-dependent hemolysis was measured by monitoring the optical density (OD)540 of PBS-washed sheep erythrocytes. Complete hemolysis (100%) was confirmed by treatment of erythrocytes with Triton X-100. Data points represent the mean±SD of triplicate experiments.
(§3) The macromolecular synthesis assay, TEM, and FM experiments were all consistent with membrane disruption. […] The high membrane selectivity of the 5-aminoquinolin-4-ones in this assay is impressive and is in accordance with the observed therapeutic index (CC50/MIC).

[3] = system: erythrocyte membranes (versus S. aureus membranes); experiment: in vitro; format: cell-based, sheep; details: sheep; read-out: selectivity for S. aureus membranes over erythrocyte membranes
Procedure: as §2, §3

S. aureus MW2 = experiment: Antimicrobial susceptibility MIC, S. aureus MW2; format: cell-based; details: Staphylococcus aureus
Excerpt: as §1
(§4) The compounds maintain activity against Staphylococcus epidermidis; however, 31, 111 and 123 all lose considerable potency against Enterococcus faecalis and Enterococcus faecium, which contribute heavily, along with MRSA, to healthcare-associated infections.

S. aureus NIH04008 = experiment: Antimicrobial susceptibility MIC, S. aureus NIH04008; format: cell-based; details: Staphylococcus aureus
Excerpt: as §1, §4

E. faecalis SMC374 = experiment: Antimicrobial susceptibility MIC, E. faecalis SMC374; format: cell-based; details: Enterococcus faecalis
Excerpt: as §1, §4

E. faecium ATCC19579 = experiment: Antimicrobial susceptibility MIC, E. faecium ATCC19579; format: cell-based; details: Enterococcus faecium
Excerpt: as §1, §4

E. coli DHMC-1 = experiment: Antimicrobial susceptibility MIC, E. coli DHMC-1; format: cell-based; details: Escherichia coli, DHMC1; E. coli strain DHMC-1
Excerpt: as §1, §4

K. pneumonia 7117 = experiment: Antimicrobial susceptibility MIC, K. pneumonia 7117; format: cell-based; details: Klebsiella pneumoniae; K. pneumonia strain 7117
Excerpt: as §1, §4

E. cloacae ND-21 = experiment: Antimicrobial susceptibility MIC, E. cloacae ND-21; format: cell-based; details: Enterobacter cloacae, ND21; E. cloacae strain ND-21
Excerpt: as §1, §4

C. albicans = experiment: Antimicrobial susceptibility, C. albicans; format: cell-based, Candida albicans; details: highest concentration tested
Excerpt: as §4

[4] = system: clinical methicillin-resistant Staphylococcus aureus (MRSA) isolates; experiment: MIC against panel of MRSA / staphylococcal strains (text summaries); format: cell-based
Excerpt: as §1, §4

[5] = system: MRSA clinical strain S. aureus FPR3757; experiment: Minimum bactericidal concentration (MBC) against S. aureus FPR3757; format: cell-based
S. aureus (MRSA) = experiment: In vitro time-kill assay; format: cell-based; details: 1× MIC, initial inoculum 10^5 CFU, plating over six hours
Procedure: FIG. 4 illustrates in vitro time-kill analysis of methicillin resistant Staphylococcus aureus (MRSA). Bacterial killing was monitored by measuring the colony forming unit (CFU) for six hours when treated with compounds 22, 31, 117, and 123 at 1× the minimum inhibitory concentration (MIC) of each compound. The CFU at each time point was determined by plating and then compared to a dimethyl sulfoxide (DMSO) control.
While the MIC data confirmed that these compounds were at least bacteriostatic, Applicants wanted to test for bactericidal properties of both the aminoquinoline and aminoquinolone scaffolds. […] The kinetics of bacterial killing was assessed in vitro using time-kill assays by incubating compounds at 1× their MIC with an initial inoculum of 10^5 colony forming units (CFU) of S. aureus and removing aliquots at various time points to determine the residual CFU by plating.

Staphylococcus simulans = experiment: Macromolecular synthesis assays (radiolabeled precursor incorporation); format: cell-based; details: for inhibition of DNA, RNA, protein and cell-wall synthesis: 0.5×, 1× and 5× MIC; for inhibition of macromolecular processes at 5× MIC: 5× the MIC, DNA, RNA, protein, cell wall precursor incorporation
Excerpt: FIG. 5 illustrates macromolecular synthesis assays (representative data with 123). Time-course for inhibition of incorporation of radiolabeled precursors [^3H]-L-isoleucine (protein), [^3H]-thymidine (DNA), [^3H]-uridine (RNA), and [^3H]-glucosamine (cell wall) in S. simulans by 123 at 0.5×, 1× and 5×MIC. Data are expressed as the percentage of inhibition relative to the DMSO only negative control. The positive control antibiotics denoted by closed circles were used at 10× MIC. Data represent the mean±standard deviation (SD) of triplicate experiments.
Classical macromolecular synthesis assays were performed to provide insight on the putative mechanism of action of the most promising quinoline 31 and quinolone 123 candidates. Disruption of bacterial membranes is not only rapid, but interferes with all major metabolic activities in the cell and is thus easily distinguished by macromolecular synthesis assays. […] The control antibiotics ciprofloxacin, rifampicin, vancomycin and tetracycline were included as inhibitors of DNA, RNA, cell wall, and protein synthesis, respectively. The cells were quenched at various time points with 10% trichloroacetic acid (TCA), filtered, washed and the amount of precursor incorporation was quantified by scintillation counting.

[6] = system: S. aureus (strain USA300); experiment: Transmission electron microscopy of treated cells; format: cell-based; details: 1× MIC, after 10 minutes, vs DMSO
Procedure: FIGS. 6A, 6B and 6C illustrate transmission electron microscopy (TEM) imaging of MRSA USA300 treated with compounds 22 and 31.
Transmission electron microscopy (TEM) and fluorescence microscopy (FM) allowed Applicants to directly observe the effects of the novel 4-aminoquinolines […] 5-aminoquinolones on the cell morphology of staphylococci.
(§5) These cellular defects were not seen in any of the control cells treated with DMSO. Fluorescent microscopy was performed on a S. aureus (strain COL) strain after treatment with either DMSO, 31 or 123 for 30 minutes followed by staining with FM 4-64 (red membrane stain), bodipy-vancomycin (Van-FL, green stain), and Hoechst (blue DNA stain).

S. aureus (strain COL) = experiment: Fluorescent microscopy of membrane, cell wall and DNA; format: cell-based; details: 1× MIC, 30 minutes, vs DMSO
Procedure: FIGS. 7A and 7B illustrate fluorescent microscopy (FM) analysis of the membrane, cell wall, and DNA in MRSA. FM of COL MRSA strain treated with compound 123 (FIG. 7B, bottom row) at 1×MIC and DMSO (FIG. 7A, top row) for 30 minutes followed by staining with FM-64 (far left column, 0.5 μg/mL), VanFL (second column, 1 μg/mL), and Hoechst (third column, 1 μg/mL) for 5 minutes and washed with 1× phosphate buffered saline (PBS) before imaging (fourth column, overlay).
as §5

sheep erythrocytes = experiment: in vitro; format: cell-based; details: for hemolysis: sheep, 32 μg/mL
Procedure: as §2, §3

S. aureus COL = experiment: Antimicrobial susceptibility MIC, S. aureus COL; format: cell-based; details: Staphylococcus aureus; S. aureus strain COL
Excerpt: as §1, §4

S. aureus N325 = experiment: Antimicrobial susceptibility MIC, S. aureus N325; format: cell-based; details: Staphylococcus aureus; S. aureus strain N325
Excerpt: as §1, §4

S. aureus NRS71 = experiment: Antimicrobial susceptibility MIC, S. aureus NRS71; format: cell-based; details: Staphylococcus aureus; S. aureus strain NRS71
Excerpt: as §1, §4

S. epidermidis NIH04003 = experiment: Antimicrobial susceptibility MIC, S. epidermidis NIH04003; format: cell-based; details: Staphylococcus epidermidis; S. epidermidis strain NIH04003
Excerpt: as §1, §4

E. faecalis DHMC #1 = experiment: Antimicrobial susceptibility MIC, E. faecalis DHMC #1; format: cell-based; details: Enterococcus faecalis; E. faecalis strain DHMC #1
Excerpt: as §1, §4

E. faecium DHMC #1 = experiment: Antimicrobial susceptibility MIC, E. faecium DHMC #1; format: cell-based; details: Enterococcus faecium; E. faecium strain DHMC #1
Excerpt: as §1, §4

[7] = Staphylococcus aureus, MRSA, MRSA clinical strain FPR3757, Mueller-Hinton broth, CLSI guidelines, complete inhibition of observable growth, read-out: MIC
[8] = six S. aureus strains of Table 9, read-out: MIC towards all six S. aureus strains

Row | Compound | MIC [1, 7] | selectivity ratio [2] | MIC (S. aureus MW2; MW2) | MIC (S. aureus NIH04008; NIH04008) | MIC (E. coli DHMC-1) | MIC (K. pneumonia 7117) | MIC (E. cloacae ND-21) | MIC against C. albicans as multiple of MIC (C. albicans) | MIC [4, 8] | MBC relative to MIC [5] | time-kill: CFU reduction (S. aureus (MRSA)) | inhibition of DNA, RNA, protein and cell-wall synthesis (Staphylococcus simulans) | inhibition of macromolecular processes at 5× MIC (Staphylococcus simulans) | cell morphology in TEM images [6] | DNA and cell wall staining (Hoechst, Van-FL) (S. aureus (strain COL)) | membrane staining (FM 4-64) (S. aureus (strain COL)) | hemolysis (sheep erythrocytes) | further results
1 | O=c1cc(C(F)(F)F)[nH]c2cc(C(F)(F)F)cc(Nc3ccc(F)c(F)c3)c12 [Compound 109] | < 0.06 µg/mL | > 500 |  |  |  |  |  |  |  |  |  |  |  |  |  |  |  | 
2 | O=c1cc(C(F)(F)F)[nH]c2cc(C(F)(F)F)cc(Nc3cccc(OC(F)(F)F)c3)c12 [Compound 110] | 0.06 to 0.12 µg/mL (≈ 0.132 to 0.263 µM) |  |  |  |  |  |  |  |  |  |  |  |  |  |  |  |  | selectivity ratio [3]: > 500
3 | FC(F)(F)c1ccc(Nc2cc(C(F)(F)F)nc3cc(C(F)(F)F)ccc23)nc1 [Compound 31] | 0.25 µg/mL (≈ 0.588 µM) |  | 0.125 µg/mL (≈ 0.294 µM) | 0.125 µg/mL (≈ 0.294 µM) | > 64 µg/mL | > 64 µg/mL | > 64 µg/mL | >16× × MIC | 0.125 to 0.25 µg/mL (≈ 0.294 to 0.588 µM) | MBCs equal to their MIC values | reduced the CFU below the limit of detection at four to six hours | concentration-dependent inhibition of DNA, RNA, protein and cell-wall synthesis | completely inhibited all macromolecular processes | cross-wall-septum formation with reduced splitting; also recorded: mesosome-like membrane inclusions | little or no change compared to the DMSO control | membrane defects | None of the compounds except 76, displayed any hemolysis | fold loss of potency (MIC) relative to the comparator ([1]; MRSA FPR3757 MIC ratio): 4 fold; MIC (E. faecalis SMC374; E. faecalis strain SMC374, read-out: MIC): 2 µg/mL (≈ 4.7 µM); MIC (E. faecium ATCC19579; E. faecium strain ATCC19579, read-out: MIC): 0.25 to 1 µg/mL (≈ 0.588 to 2.35 µM)
4 | O=c1cc(C(F)(F)F)[nH]c2cc(F)cc(Nc3ccc(C(F)(F)F)cn3)c12 [Compound 123] | < 0.06 µg/mL | > 500 |  |  |  |  |  |  | < 0.06 µg/mL | MBCs equal to their MIC values | reduced the CFU below the limit of detection at four to six hours | concentration-dependent inhibition of DNA, RNA, protein and cell-wall synthesis | completely inhibited all macromolecular processes | cross-wall-septum formation with reduced splitting; also recorded: mesosome-like membrane inclusions | little or no change compared to the DMSO control | membrane defects | None of the compounds except 76, displayed any hemolysis | MIC ([1]; MRSA clinical strain FPR3757, Mueller-Hinton broth, CLSI guidelines, complete inhibition of observable growth): <0.06 µg/mL; MIC (S. aureus MW2; S. aureus strain MW2, read-out: MIC): < 0.06 µg/mL; MIC (S. aureus COL): < 0.06 µg/mL; MIC (S. aureus N325): < 0.06 µg/mL; MIC (S. aureus NRS71): < 0.06 µg/mL; MIC (S. aureus NIH04008; S. aureus strain NIH04008, read-out: MIC): < 0.06 µg/mL; MIC (S. epidermidis NIH04003): < 0.06 µg/mL; MIC (E. faecalis DHMC #1): 8 µg/mL (≈ 20.4 µM); MIC (E. faecium DHMC #1): 8 µg/mL (≈ 20.4 µM); MIC ([4]; read-out: MIC against numerous clinical MRSA isolates): ≤ 0.06 µg/mL
5 | FC(F)(F)c1ccc2c(Nc3ccc(Cl)c(Cl)c3)cc(C(F)(F)F)nc2c1 [Compound 22] | 0.06 µg/mL (≈ 0.141 µM) |  | 0.125 µg/mL (≈ 0.294 µM) | 0.125 µg/mL (≈ 0.294 µM) | > 4 µg/mL | > 4 µg/mL | > 4 µg/mL | >16× × MIC |  | MBCs equal to their MIC values | reduced the CFU below the limit of detection at four to six hours |  |  |  |  |  |  | MIC ([1]; Staphylococcus aureus, MRSA): 0.0625 µg/mL (≈ 0.147 µM); MIC (E. faecalis SMC374; SMC374): 0.125 µg/mL (≈ 0.294 µM); MIC (E. faecium ATCC19579; ATCC19579): 0.125 µg/mL (≈ 0.294 µM)
6 | Triton X-100 [reference compound] |  |  |  |  |  |  |  |  |  |  |  |  |  |  |  |  |  | lysis (positive control) (sheep erythrocytes): 100%
